Read-outs that look alike come from different tables or passages of the source.
Key:
[1] = biological target: deazaflavin (F420) dependent nitroreductase (Ddn) (Mycobacterium tuberculosis, UniProt P9WP15); assay: activation of nitroimidazoles to NO• by Ddn; assay type: biochemical; settings: for activation to NO• by Ddn: FIG. 2; for Ddn mediated production of ^15NO•: FIG. 4
[2] = oral pyrazinamide, metabolite pyrazinoic acid formed by host hepatic microsomal deamidase, cited from earlier work

Sequence of deazaflavin (F420) dependent nitroreductase (Ddn) (P9WP15 whole entry): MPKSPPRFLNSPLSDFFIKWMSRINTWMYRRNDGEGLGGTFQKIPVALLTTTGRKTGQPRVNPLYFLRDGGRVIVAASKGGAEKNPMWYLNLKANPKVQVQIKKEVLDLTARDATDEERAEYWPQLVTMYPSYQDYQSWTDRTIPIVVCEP

C[C@]1(COc2ccc(N3CCC(Oc4ccc(OC(F)(F)F)cc4)CC3)cc2)Cn2cc([N+](=O)[O-])nc2O1 [OPC67683]
activation to NO• by Ddn [1]: activation of PA824 and OPC67683 to NO• by Ddn

O=[N+]([O-])c1cn2c(n1)OC[C@@H](OCc1ccc(OC(F)(F)F)cc1)C2 [PA824]
activation to NO• by Ddn [1]: activation of PA824 and OPC67683 to NO• by Ddn

NC(=O)c1cnccn1 [PZA, pyrazinamide]
time of peak POA (metabolite) levels after oral dosage [2]: ~6 h
time of peak POA (metabolite) levels after oral dosage ([2]; listed as pyrazinamide): around six

O=[15N+]([O-])c1cn2c(n1)OC[C@@H](OCc1ccc(OC(F)(F)F)cc1)C2 [^15N-nitro-PA824]
Ddn mediated production of ^15NO• [1]: Ddn mediated production of ^15NO•

CC1(COc2ccc(N3CCC(Oc4ccc(OC(F)(F)F)cc4)CC3)cc2)Cn2cc([15N+](=O)[O-])nc2O1 (stereo not drawn) [^15N-nitro-OPC67683]
Ddn mediated production of ^15NO• [1]: Ddn mediated production of ^15NO•
